Our source for the EC50 values is PMC9445041, “Development of a red fluorescent protein-based cGMP indicator applicable for live-cell imaging” (Communications Biology, 2022).

The structures appear in SMILES notation.

In general, EC50 refers to the concentration giving half of the maximal effect. A higher EC50 goes with lower potency in that assay.

For the assay, the target named is T1, Red cGull (Mus musculus, UniProt Q8CG03).
T1 construct: gene Pde5a; N-terminal mouse APP fragment (aa 190-286) fused for bacterial expression; purified on Ni-NTA from E. coli JM109(DE3)
T1 sequence (Q8CG03 164-298): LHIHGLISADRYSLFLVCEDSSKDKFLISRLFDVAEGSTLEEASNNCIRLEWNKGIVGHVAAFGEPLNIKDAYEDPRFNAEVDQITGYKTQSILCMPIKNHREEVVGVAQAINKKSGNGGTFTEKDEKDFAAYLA
In words: fluorescence intensity dose-response, four-parameter logistic fit. In kind it is binding.

For `Nc1nc2c(ncn2[C@@H]2O[C@@H]3COP(=O)(O)O[C@H]3[C@H]2O)c(=O)[nH]1` [cGMP], the EC50 was found to be 330 nM.
